The values below come from US6822003B2, “Aldose reductase inhibitor and process for preparation thereof” (Council of Scientific and Industrial Research, priority 2001, dated 2004).

For orientation: IC50 means the point on the concentration scale where inhibition reaches its midpoint.

The test system of one series is diabetic rats. The settings on record: via an intragastric tube, compared with ONO-2235; cited from earlier work.
In series [1] the target is rat lens aldose reductase (Rattus norvegicus, UniProt P07943). Put plainly: rat lens aldose reductase inhibition, decrease in absorbence at 340 nm. In kind it is biochemical. As to conditions: DL-glyceraldehyde substrate, 25° C., pH 7.0; read-out: IC50 against rat lens aldose reductase inhibitory activity. How it is done: Lens were collected from rat eyes and homogenized with sodium, potassium phosphate buffer (0.135 M, pH 7.0) containing 0.5 mM of phenyl methyl sulphonyl fluoride and 10 mM of β-mercaptoethanol. The homogenate was centrifuged at 10,000 r.p.m for 30 minutes at 4° C. The supernatant was taken as enzyme source. Enzyme reaction was carried out at 25° C. in a quartz cuvette with a 1 cm light path. The assay mixture contained 100 μL of nicotinamide adenine dinucleotide phosphate tetra sodium salt (from a stock solution of 9.6 mM), 100 μL of DL-glyceraldehyde (from a stock solution of 250 mM), 10 μL of inhibitor dissolved in dimethyl sulphoxide, sodium-potassium-phosphate buffer (0.135 M, pH 7.0) to make up the total volume to 3 mL and the reaction was initiated by the addition of 200 μL of enzyme solution. The enzyme reaction was monitored by the decrease in absorbence at 340 nm and compared with enzyme reaction without inhibitor.

Another series in a line: solubility in solvents. Type of series: physicochemical.

On to `O=C(/C=C/c1ccc(O)cc1)c1ccc(O)cc1O` [Isoliquiritigenin, isoliquiritigenin], for which, in the series on diabetic rats, the “suppression of sorbitol accumulation in the red blood cells, the sciatic nerve, and the lens” value was “suppressed sorbitol accumulation in the red blood cells, the sciatic nerve, and the lens as effectively as ONO-2235”.

Turning to `CCCCCCOc1cc(O)cc2c1C(=O)C(O)=CC2=O` [Compound 1, 2, 6, dihydroxy, 8, hexoxy, 1, 4, naphthaquinone], the IC50 in series [1] worked out at 26.2 µM. In the series “solubility in solvents” (chloroform and hexane), the “solubility in chloroform and hexane” value was “slightly soluble”. Further, the “solubility in methanol, ethyl acetate, dimethyl sulphoxide, diethyl ether, sodium bicarbonate, sodium carbonate and sodium hydroxide solution” value in the series “solubility in solvents” (organic solvents and alkaline solutions) is “soluble”. In addition, the solubility in water result in “solubility in solvents” (water) was “insoluble”.
